In ChEMBL document CHEMBL2413072, “Synthesis and in vitro anticancer studies of novel C-2 arylidene congeners of lantadenes” (2013):

Assays:
Format in all cases: functional
MDA-MB-468 = test: Growth inhibition of human MDA-MB-468 cells assessed as growth inhibition at 10 uM by sulforhodamine B assay; conditions: read-out: GI
T47D [1] = test: Growth inhibition of human T47D cells assessed as growth inhibition at 10 uM by sulforhodamine B assay; conditions: read-out: GI
[2] = Growth inhibition of human Hs 578T cells assessed as growth inhibition at 10 uM by sulforhodamine B assay; conditions: read-out: GI
DU-145 [3] = test: Growth inhibition of human DU145 cells assessed as growth inhibition at 10 uM by sulforhodamine B assay; conditions: read-out: GI
PC-3 = test: Growth inhibition of human PC3 cells assessed as growth inhibition at 10 uM by sulforhodamine B assay; conditions: read-out: GI
UO-31 = test: Growth inhibition of human UO31 cells assessed as growth inhibition at 10 uM by sulforhodamine B assay; conditions: read-out: GI
TK-10 = test: Growth inhibition of human TK10 cells assessed as growth inhibition at 10 uM by sulforhodamine B assay; conditions: read-out: GI
SN12C = test: Growth inhibition of human SN12C cells assessed as growth inhibition at 10 uM by sulforhodamine B assay; conditions: read-out: GI
SK-OV-3 = test: Growth inhibition of human SKOV3 cells assessed as growth inhibition at 10 uM by sulforhodamine B assay; conditions: read-out: GI
OVCAR-4 [4] = test: Growth inhibition of human OVCAR4 cells assessed as growth inhibition at 10 uM by sulforhodamine B assay; conditions: read-out: GI
UACC-62 [5] = test: Growth inhibition of human UACC62 cells assessed as growth inhibition at 10 uM by sulforhodamine B assay; conditions: read-out: GI
UACC-257 [6] = test: Growth inhibition of human UACC257 cells assessed as growth inhibition at 10 uM by sulforhodamine B assay; conditions: read-out: GI
SK-MEL-5 = test: Growth inhibition of human SK-MEL-5 cells assessed as growth inhibition at 10 uM by sulforhodamine B assay; conditions: read-out: GI
MDA-MB-435 = test: Growth inhibition of human MDA-MB-435 cells assessed as growth inhibition at 10 uM by sulforhodamine B assay; conditions: read-out: GI
Malme-3M = test: Growth inhibition of human MALME-3M cells assessed as growth inhibition at 10 uM by sulforhodamine B assay; conditions: read-out: GI
U-251 = test: Growth inhibition of human U251 cells assessed as growth inhibition at 10 uM by sulforhodamine B assay; conditions: read-out: GI
SNB-75 [7] = test: Growth inhibition of human SNB75 cells assessed as growth inhibition at 10 uM by sulforhodamine B assay; conditions: read-out: GI
SF-539 [8] = test: Growth inhibition of human SF539 cells assessed as growth inhibition at 10 uM by sulforhodamine B assay; conditions: read-out: GI
SF-268 [9] = test: Growth inhibition of human SF268 cells assessed as growth inhibition at 10 uM by sulforhodamine B assay; conditions: read-out: GI
SW-620 [10] = test: Growth inhibition of human SW620 cells assessed as growth inhibition at 10 uM by sulforhodamine B assay; conditions: read-out: GI
HT-29 = test: Growth inhibition of human HT-29 cells assessed as growth inhibition at 10 uM by sulforhodamine B assay; conditions: read-out: GI
HCT-116 = test: Growth inhibition of human HCT116 cells assessed as growth inhibition at 10 uM by sulforhodamine B assay; conditions: read-out: GI
NCI-H522 = test: Growth inhibition of human NCI-H522 cells assessed as growth inhibition at 10 uM by sulforhodamine B assay; conditions: read-out: GI
NCI-H460 = test: Growth inhibition of human NCI-H460 cells assessed as growth inhibition at 10 uM by sulforhodamine B assay; conditions: read-out: GI
NCI-H23 = test: Growth inhibition of human NCI-H23 cells assessed as growth inhibition at 10 uM by sulforhodamine B assay; conditions: read-out: GI
NCI-H226 = test: Growth inhibition of human NCI-H226 cells assessed as growth inhibition at 10 uM by sulforhodamine B assay; conditions: read-out: GI
K562 = test: Growth inhibition of human K562 cells assessed as growth inhibition at 10 uM by sulforhodamine B assay; conditions: read-out: GI
HL-60(TB) = test: Growth inhibition of human HL-60(TB) cells assessed as growth inhibition at 10 uM by sulforhodamine B assay; conditions: read-out: GI
T47D [11] = test: Growth inhibition of human T47D cells assessed as cell growth at 10 uM by sulforhodamine B assay; conditions: read-out: Activity
[12] = Growth inhibition of human Hs 578T cells assessed as cell growth at 10 uM by sulforhodamine B assay; conditions: read-out: Activity
DU-145 [13] = test: Growth inhibition of human DU145 cells assessed as cell growth at 10 uM by sulforhodamine B assay; conditions: read-out: Activity
RXF 393 = test: Growth inhibition of human RXF393 cells assessed as cell growth at 10 uM by sulforhodamine B assay; conditions: read-out: Activity
CAKI-1 = test: Growth inhibition of human CAKI-1 cells assessed as cell growth at 10 uM by sulforhodamine B assay; conditions: read-out: Activity
786-0 = test: Growth inhibition of human 786-0 cells assessed as cell growth at 10 uM by sulforhodamine B assay; conditions: read-out: Activity
[14] = Growth inhibition of human NCI-ADR-RES cells assessed as cell growth at 10 uM by sulforhodamine B assay; conditions: read-out: Activity
OVCAR-8 = test: Growth inhibition of human OVCAR8 cells assessed as cell growth at 10 uM by sulforhodamine B assay; conditions: read-out: Activity
OVCAR-4 [15] = test: Growth inhibition of human OVCAR4 cells assessed as cell growth at 10 uM by sulforhodamine B assay; conditions: read-out: Activity
UACC-257 [16] = test: Growth inhibition of human UACC257 cells assessed as cell growth at 10 uM by sulforhodamine B assay; conditions: read-out: Activity
UACC-62 [17] = test: Growth inhibition of human UACC62 cells assessed as cell growth at 10 uM by sulforhodamine B assay; conditions: read-out: Activity
SNB-75 [18] = test: Growth inhibition of human SNB75 cells assessed as cell growth at 10 uM by sulforhodamine B assay; conditions: read-out: Activity
SF-539 [19] = test: Growth inhibition of human SF539 cells assessed as cell growth at 10 uM by sulforhodamine B assay; conditions: read-out: Activity
SF-295 = test: Growth inhibition of human SF295 cells assessed as cell growth at 10 uM by sulforhodamine B assay; conditions: read-out: Activity
SF-268 [20] = test: Growth inhibition of human SF268 cells assessed as cell growth at 10 uM by sulforhodamine B assay; conditions: read-out: Activity
SW-620 [21] = test: Growth inhibition of human SW620 cells assessed as cell growth at 10 uM by sulforhodamine B assay; conditions: read-out: Activity
HCT-15 = test: Growth inhibition of human HCT15 cells assessed as cell growth at 10 uM by sulforhodamine B assay; conditions: read-out: Activity
[22] = Growth inhibition of human HCC2998 cells assessed as cell growth at 10 uM by sulforhodamine B assay; conditions: HCC 2998, read-out: Activity
NCI-H322M = test: Growth inhibition of human NCI-H322M cells assessed as cell growth at 10 uM by sulforhodamine B assay; conditions: read-out: Activity
A549 = test: Growth inhibition of human A549/ATCC cells assessed as cell growth at 10 uM by sulforhodamine B assay; conditions: read-out: Activity
SR = test: Growth inhibition of human SR cells assessed as cell growth at 10 uM by sulforhodamine B assay; conditions: read-out: Activity

CC1(C)C[C@@H](O)[C@]2(C(=O)O)CC[C@]3(C)C(=CC[C@@H]4[C@@]5(C)C/C(=C\C=C\c6ccccc6)C(=O)C(C)(C)[C@@H]5CC[C@]43C)[C@@H]2C1
inhibition of growth at 10 µM (MDA-MB-468): 27.4%
inhibition of growth at 10 µM (T47D [1]): 62.4%
inhibition of growth at 10 µM [2]: 41.6%
inhibition of growth at 10 µM (DU-145 [3]): 28.8%
inhibition of growth at 10 µM (PC-3): 58.5%
inhibition of growth at 10 µM (UO-31): 59.7%
inhibition of growth at 10 µM (TK-10): 11.7%
inhibition of growth at 10 µM (SN12C): 54.5%
inhibition of growth at 10 µM (SK-OV-3): 14.3%
inhibition of growth at 10 µM (OVCAR-4 [4]): 45.8%
inhibition of growth at 10 µM (UACC-62 [5]): 49.6%
inhibition of growth at 10 µM (UACC-257 [6]): 38%
inhibition of growth at 10 µM (SK-MEL-5): 26.3%
inhibition of growth at 10 µM (MDA-MB-435): 27.7%
inhibition of growth at 10 µM (Malme-3M): 15.5%
inhibition of growth at 10 µM (U-251): 66.4%
inhibition of growth at 10 µM (SNB-75 [7]): 27.9%
inhibition of growth at 10 µM (SF-539 [8]): < 10%
inhibition of growth at 10 µM (SF-268 [9]): 29.3%
inhibition of growth at 10 µM (SW-620 [10]): 44.2%
inhibition of growth at 10 µM (HT-29): 48.3%
inhibition of growth at 10 µM (HCT-116): 82.5%
inhibition of growth at 10 µM (NCI-H522): 52.3%
inhibition of growth at 10 µM (NCI-H460): 54.2%
inhibition of growth at 10 µM (NCI-H23): 40.3%
inhibition of growth at 10 µM (NCI-H226): 27.7%
inhibition of growth at 10 µM (K562): 67.6%
inhibition of growth at 10 µM (HL-60(TB)): 61.2%
growth at 10 µM (T47D [11]): 37.6%
growth at 10 µM [12]: 58.4%
growth at 10 µM (DU-145 [13]): 71.2%
growth at 10 µM (RXF 393): 84.1%
growth at 10 µM (CAKI-1): 43%
growth at 10 µM (786-0): 78.1%
growth at 10 µM [14]: 76.2%
growth at 10 µM (OVCAR-8): 43%
growth at 10 µM (OVCAR-4 [15]): 54.2%
growth at 10 µM (UACC-257 [16]): 62%
growth at 10 µM (UACC-62 [17]): 50.4%
growth at 10 µM (SNB-75 [18]): 72.1%
growth at 10 µM (SF-539 [19]): 91.9%
growth at 10 µM (SF-295): 23.5%
growth at 10 µM (SF-268 [20]): 70.7%
growth at 10 µM (SW-620 [21]): 55.8%
growth at 10 µM (HCT-15): 35.2%
growth at 10 µM [22]: 82.8%
growth at 10 µM (NCI-H322M): 71.9%
growth at 10 µM (A549): 22.7%
growth at 10 µM (SR): 62.6%

COc1cc(/C=C2\C[C@]3(C)[C@H]4CC=C5[C@@H]6CC(C)(C)C[C@@H](O)[C@]6(C(=O)O)CC[C@@]5(C)[C@]4(C)CC[C@H]3C(C)(C)C2=O)ccc1O
inhibition of growth at 10 µM (MDA-MB-468): < 10%
inhibition of growth at 10 µM (T47D [1]): 18.9%
inhibition of growth at 10 µM [2]: < 10%
inhibition of growth at 10 µM (DU-145 [3]): < 10%
inhibition of growth at 10 µM (PC-3): 27.8%
inhibition of growth at 10 µM (UO-31): 24.1%
inhibition of growth at 10 µM (TK-10): < 10%
inhibition of growth at 10 µM (SN12C): 12.5%
inhibition of growth at 10 µM (SK-OV-3): < 10%
inhibition of growth at 10 µM (OVCAR-4 [4]): 16.2%
inhibition of growth at 10 µM (UACC-62 [5]): 25%
inhibition of growth at 10 µM (UACC-257 [6]): < 10%
inhibition of growth at 10 µM (SK-MEL-5): 11.9%
inhibition of growth at 10 µM (MDA-MB-435): < 10%
inhibition of growth at 10 µM (Malme-3M): 18.9%
inhibition of growth at 10 µM (U-251): 15.3%
inhibition of growth at 10 µM (SNB-75 [7]): 17.9%
inhibition of growth at 10 µM (SF-539 [8]): < 10%
inhibition of growth at 10 µM (SF-268 [9]): < 10%
inhibition of growth at 10 µM (SW-620 [10]): < 10%
inhibition of growth at 10 µM (HT-29): 14.5%
inhibition of growth at 10 µM (HCT-116): 15.2%
inhibition of growth at 10 µM (NCI-H522): 19.2%
inhibition of growth at 10 µM (NCI-H460): < 10%
inhibition of growth at 10 µM (NCI-H23): 15%
inhibition of growth at 10 µM (NCI-H226): < 10%
inhibition of growth at 10 µM (K562): 28.8%
inhibition of growth at 10 µM (HL-60(TB)): 28.9%
growth at 10 µM (T47D [11]): 81.1%
growth at 10 µM [12]: 94%
growth at 10 µM (DU-145 [13]): 107%
growth at 10 µM (RXF 393): 109%
growth at 10 µM (CAKI-1): 78.8%
growth at 10 µM (786-0): 102%
growth at 10 µM [14]: 92.7%
growth at 10 µM (OVCAR-8): 79.8%
growth at 10 µM (OVCAR-4 [15]): 83.8%
growth at 10 µM (UACC-257 [16]): 91.4%
growth at 10 µM (UACC-62 [17]): 75%
growth at 10 µM (SNB-75 [18]): 82.1%
growth at 10 µM (SF-539 [19]): 96.1%
growth at 10 µM (SF-295): 76.5%
growth at 10 µM (SF-268 [20]): 109%
growth at 10 µM (SW-620 [21]): 108%
growth at 10 µM (HCT-15): 76.5%
growth at 10 µM [22]: 95.2%
growth at 10 µM (NCI-H322M): 97.5%
growth at 10 µM (A549): 71.8%
growth at 10 µM (SR): 87.1%
